For the experiment, the target named is T1, CA (Human immunodeficiency virus type 1 group M subtype B, UniProt P12493).
T1 construct: a fusion protein of CA with glutathione-S-transferase (CA-GST)
In words: ALPHA screen (AlphaScreen): inhibition of CAI binding to CA. The conditions noted are these: CAI-biotin peptide / CA-GST; compounds screened at 0.5-100 µM; read-out: α screen IC50. Also noted: species or system HIV-1. How it is done: The AlphaScreen experiments are performed using Perkin Elmer Enspire plate reader in white 96-well ProxiPlates and PBS supplemented with 0.05% Tween20, 2mM DTT, 2% DMSO. First, Streptavidin-coated Donor beads are used to capture the CAI-biotin peptide. In the other solution, a fusion protein of CA with glutathione-S-transferase (CA-GST) is mixed with GSH Acceptor beads. Both mixtures were incubated and then mixed together. To test the ability of prepared organic compounds to inhibit the CAI binding to CA, they are screened at concentrations between 0.5-100 µM and IC50 values are calculated from the influenced signals.
Upon illumination by laser at 680 nm, Donor beads containing the photosensitizer phthalocyanine convert ambient oxygen to an excited form of singlet oxygen ^1O2. Singlet oxygen can within its half-life of ~ 4 µs diffuse approximately 200 nm in solution. If an Acceptor bead is within that proximity, which is mostly upon CA:CAI interaction, energy is transferred from the singlet oxygen to thioxene derivates within the Acceptor and signal at 520 - 620 nm is emitted.

Take `CN(C)c1ccc(-c2nc(Nc3ccc4c(c3)nnn4C)c3ccccc3n2)cc1` [AMR.512]: the IC50 came out at 30.8 µM.
The figure for `Fc1ccc(Nc2nc(-c3ccncc3)nc3ccccc23)cc1` [AMR.353] is over 200 µM.
As for `O=[N+]([O-])c1ccc(F)c(Nc2nc(-c3ccc(C(F)(F)F)cc3)nc3ccccc23)c1` [AMR.444], the IC50 was over 200 µM.
Turning to `Cn1nnc2cc(Nc3nc(-c4ccccn4)nc4ccccc34)ccc21` [AMR.421], the IC50 turned out to be 33.7 µM.
For the compound `FC(F)(F)c1ccc(-c2nc(Nc3ccc4[nH]nnc4c3)c3ccccc3n2)cc1` [AMR.445], the IC50 was 53.2 µM.
As for `Fc1ccc(Nc2nc(-c3ccc(Cl)cc3)nc3ccccc23)cc1` [AMR.364], the IC50 is over 200 µM.
Turning to `Cn1nnc2cc(Nc3nc(-c4ccc(Cl)cc4Cl)nc4ccccc34)ccc21` [AMR.401], the IC50 amounted to 41.8 µM.
With `Cc1ccc(S(=O)(=O)NNc2nc(-c3ccc(Cl)cc3)nc3ccccc23)cc1` [AMR.370], the IC50 is over 200 µM.
`O=[N+]([O-])c1cc(F)ccc1Nc1nc(-c2ccncc2)nc2ccccc12` [AMR.450]: the IC50 came to 169 µM.
With `Cn1nnc2cc(Nc3nc(-c4ccc(Cl)cc4)nc4ccccc34)ccc21` [AMR.374], the IC50 was found to be 6.6 µM.
Regarding `c1cncc(-c2nc(Nc3ccc(-n4ccnc4)cc3)c3ccccc3n2)c1` [AMR.341], the IC50 stood at 31.5 µM.
Regarding `O=[N+]([O-])c1ccc(F)c(Nc2nc(-c3ccncc3)nc3ccccc23)c1` [AMR.348], the IC50 worked out at 7.2 µM.
`CN(C)c1ccc(Nc2nc(-c3ccncc3)nc3ccccc23)cc1` [AMR.351]: the IC50 is 15.4 µM.
Take `Cc1ccc(S(=O)(=O)NNc2nc(-c3ccncc3)nc3ccccc23)cc1` [AMR.356]: the IC50 stood at 156 µM.
`O=[N+]([O-])c1cc(Nc2nc(-c3ccncc3)nc3ccccc23)ccc1O` [AMR.458]: the IC50 turned out to be 5.8 µM.
The figure for `Cc1cccc(Nc2nc(-c3ccc(Cl)cc3)nc3ccccc23)c1C` [AMR.365] is over 200 µM; for `COc1ccc(Nc2nc(-c3cccnc3)nc3ccccc23)cc1OC` [AMR.328] it is 110 µM.
As to `Clc1ccc(-c2nc(NCCCn3ccnc3)c3ccccc3n2)cc1` [AMR.367], the IC50 was over 200 µM.
With `c1ccc(-c2nc(Nc3ccc4[nH]nnc4c3)c3ccccc3n2)nc1` [AMR.422], the IC50 was determined as 3.2 µM.
On to `Cc1ccc(S(=O)(=O)NNc2nc(-c3ccccc3Cl)nc3ccccc23)cc1` [AMR.400], for which the IC50 was over 200 µM.
Consider `CN(C)c1cccc(Nc2nc(-c3ccc(Cl)cc3)nc3ccccc23)c1` [AMR.380], for which the IC50 came to 157 µM.
The same measure for `Fc1ccc(Cl)cc1Nc1nc(-c2ccncc2)nc2ccccc12` [AMR.451]: 15.1 µM.
For the compound `Cc1cccc(Nc2nc(-c3cccnc3)nc3ccccc23)c1C` [AMR.334], the IC50 amounted to 43.2 µM.
`c1ccc2c(Nc3ccc4[nH]nnc4c3)ncnc2c1` [AMR.476]: the IC50 was 137 µM.
With `Cc1ccc(S(=O)(=O)NNc2nc(-c3cccnc3)nc3ccccc23)cc1` [AMR.336], the IC50 stood at 119 µM.
Regarding `CN(C)c1cccc(-c2nc(Nc3ccc4c(c3)nnn4C)c3ccccc3n2)c1` [AMR.509], the IC50 is over 200 µM.
The same measure for `O=[N+]([O-])c1ccc(-c2nc(Nc3ccc4[nH]nnc4c3)c3ccccc3n2)cc1` [AMR.429]: 2.4 µM.
In the case of `O=[N+]([O-])c1cccc(O)c1Nc1nc(-c2cccnc2)nc2ccccc12` [AMR.492], the IC50 turned out to be 19.7 µM.
Take `c1ccc2c(NCCCn3ccnc3)nc(-c3ccncc3)nc2c1` [AMR.347]: the IC50 was over 200 µM.
Regarding `CCOC(=O)c1ccc(Nc2nc(-c3ccc(Cl)cc3Cl)nc3ccccc23)cc1` [AMR.390], the IC50 was over 200 µM.
On to `Fc1ccc(Nc2nc(-c3cccnc3)nc3ccccc23)cc1` [AMR.331], for which the concentration for half-maximal inhibition (IC50) came to 44.4 µM.
For `CN(C)c1ccc(-c2nc(Nc3cc([N+](=O)[O-])ccc3F)c3ccccc3n2)cc1` [AMR.511], the IC50 was over 200 µM.
The same measure for `O=[N+]([O-])c1ccc(F)c(Nc2nc(-c3ccccn3)nc3ccccc23)c1` [AMR.416]: 2.3 µM.
Turning to `CN(C)c1cccc(Nc2nc(-c3ccc(Cl)cc3Cl)nc3ccccc23)c1` [AMR.403], the 50% inhibitory concentration (IC50) was found to be 41.1 µM.
As to `Fc1ccc(Nc2nc(-c3ccc(Cl)cc3Cl)nc3ccccc23)cc1` [AMR.397], the IC50 was over 200 µM.
The figure for `Fc1cc(Nc2nc(-c3cccnc3)nc3ccccc23)c(F)cc1Br` [AMR.483] is 16.1 µM; for `Clc1ccc(-c2nc(Nc3cc(Cl)ccc3Cl)c3ccccc3n2)cc1` [AMR.362] it is over 200 µM; for `c1ccc2c(Nc3ccc(-n4ccnc4)cc3)nc(-c3ccncc3)nc2c1` [AMR.359] it is 37.5 µM.
`Clc1ccc(-c2nc(Nc3ccc4[nH]nnc4c3)c3ccccc3n2)cc1` [AMR.3 71]: the IC50 stood at 5 µM.
In the case of `CNc1ccc([N+](=O)[O-])cc1Nc1nc(-c2ccncc2)nc2ccccc12` [AMR.466], the IC50 was found to be 4.7 µM.
For `Fc1cc(Nc2nc(-c3ccncc3)nc3ccccc23)c(F)cc1Br` [AMR.455], the IC50 was determined as 15.3 µM.
For `Clc1ccc(Cl)c(Nc2nc(-c3cccnc3)nc3ccccc23)c1` [AMR.345], the IC50 stood at 22 µM.
The same measure for `O=[N+]([O-])c1ccc(F)c(Nc2nc(-c3ccc(Cl)cc3)nc3ccccc23)c1` [AMR.366]: over 200 µM.
The figure for `CN(C)c1ccc(Nc2nc(-c3ccc(Cl)cc3)nc3ccccc23)cc1` [AMR.368] is 33.7 µM; for `Clc1ccc(-c2nc(Nc3ccc4[nH]nnc4c3)c3ccccc3n2)c(Cl)c1` [AMR.393] it is 2 µM; for `COc1ccc(Nc2nc(-c3ccc(Cl)cc3)nc3ccccc23)cc1OC` [AMR.363] it is 54.8 µM.
The same measure for `Clc1ccc(-c2nc(NCCCn3ccnc3)c3ccccc3n2)c(Cl)c1` [AMR.392]: over 200 µM.
As for `COc1ccc(Nc2nc(-c3ccc(Cl)cc3Cl)nc3ccccc23)cc1OC` [AMR.395], the IC50 was found to be 121 µM.
Take `Clc1ccc(-c2nc(Nc3cc(Cl)ccc3Cl)c3ccccc3n2)c(Cl)c1` [AMR.396]: the IC50 is over 200 µM.
Turning to `O=C(O)c1ccc(Nc2nc(-c3ccncc3)nc3ccccc23)c(O)c1` [AMR.462], the IC50 amounted to 15.2 µM.
For `O=[N+]([O-])c1ccc(F)c(Nc2ncnc3ccccc23)c1` [AMR.475], the IC50 is over 200 µM.
The same measure for `CN(C)c1cccc(Nc2nc(-c3cccnc3)nc3ccccc23)c1` [AMR.379]: 217 µM; for `O=[N+]([O-])c1ccc(F)c(Nc2nc(-c3ccc(Cl)cc3Cl)nc3ccccc23)c1` [AMR.391]: over 200 µM.
For the compound `O=[N+]([O-])c1cccc(O)c1Nc1nc(-c2ccncc2)nc2ccccc12` [AMR.461], the IC50 amounted to 57.4 µM.
For the compound `O=[N+]([O-])c1ccc(O)c(Nc2nc(-c3cccnc3)nc3ccccc23)c1` [AMR.481], the IC50 stood at 2.1 µM.
The figure for `CCOC(=O)c1ccc(Nc2cc(-c3cccnc3)nc3ccccc23)cc1` [AMR.504] is 76 µM; for `CN(C)c1cccc(Nc2nc(-c3ccncc3)nc3ccccc23)c1` [AMR.381] it is 130 µM.
Turning to `Cn1nnc2cc(Nc3nc(-c4ccc(C(F)(F)F)cc4)nc4ccccc34)ccc21` [AMR.446], the IC50 came to 28.2 µM.
With `O=[N+]([O-])c1cc(F)ccc1Nc1nc(-c2cccnc2)nc2ccccc12` [AMR.426], the IC50 was found to be 14.5 µM.
With `O=[N+]([O-])c1cc(Nc2nc(-c3ccncc3)nc3ccccc23)ccc1F` [AMR.449], the IC50 came out at 2.9 µM.
For the compound `Cn1nc2ccc(Nc3nc(-c4ccncc4)nc4ccccc34)cc2n1` [AMR.464], the IC50 stood at 97.4 µM.
The same measure for `CN(c1ccc2c(c1)nnn2C)c1nc(-c2ccncc2)nc2ccccc12` [AMR.471]: over 200 µM; for `O=[N+]([O-])c1ccc(O)c(Nc2nc(-c3ccncc3)nc3ccccc23)c1` [AMR.456]: 10.2 µM.
As to `Cn1nnc2cc(Nc3nc(-c4ccncc4)nc4ccccc34)ccc21` [AMR.373], the IC50 was found to be 17.3 µM.
With `CN(C)c1ccc(Nc2nc(-c3cccnc3)nc3ccccc23)cc1` [AMR.378], the 50% inhibitory concentration (IC50) was over 200 µM.
Consider `O=C(O)c1ccc(Nc2nc(-c3cccnc3)nc3ccccc23)c(O)c1` [AMR.493], for which the IC50 came to 30 µM.
The same measure for `Cn1nnc2cc(Nc3nc(-c4ccc([N+](=O)[O-])cc4)nc4ccccc34)ccc21` [AMR.437]: 50.9 µM.
As for `Cc1ccnc(Nc2nc(-c3ccncc3)nc3ccccc23)c1` [AMR.355], the IC50 was determined as 25 µM.
The figure for `Fc1ccc(Cl)cc1Nc1nc(-c2cccnc2)nc2ccccc12` [AMR.427] is 16.5 µM; for `Cc1ccc(Nc2nc(-c3cccnc3)nc3ccccc23)c(O)c1` [AMR.484] it is 179 µM; for `Cn1nnc2cc(Nc3cc(-c4cccnc4)nc4ccccc34)ccc21` [AMR.505] it is 59.8 µM.
Regarding `O=[N+]([O-])c1ccc(-c2nc(Nc3cc([N+](=O)[O-])ccc3F)c3ccccc3n2)cc1` [AMR.428], the IC50 was 115 µM.
The same measure for `Clc1ccc(Cl)c(Nc2nc(-c3ccncc3)nc3ccccc23)c1` [AMR.352]: 191 µM.
The figure for `Cc1ccc(Nc2nc(-c3ccncc3)nc3ccccc23)c(O)c1` [AMR.457] is over 200 µM; for `CN(C)c1cccc(-c2nc(Nc3cc([N+](=O)[O-])ccc3F)c3ccccc3n2)c1` [AMR.508] it is over 200 µM.
Turning to `c1cncc(-c2nc(NCCCn3ccnc3)c3ccccc3n2)c1` [AMR.322], the IC50 is over 200 µM.
In the case of `CCOC(=O)c1ccc(Nc2nc(-c3ccc(Cl)cc3)nc3ccccc23)cc1` [AMR.361], the IC50 was over 200 µM.

Source of the values: EP2769723A1, “Compounds for use in inhibiting HIV capsid assembly” (priority 2013, dated 2014).
